The numbers were not newly measured in patent publication US7618965B2, “(Arylamidoanilino)nitroethylene compounds” (OSI Pharmaceuticals, Inc., priority 2004, dated 2009), which cites them from elsewhere.

Counter-ions that a name gives are not always drawn.

For data set [1], the system named is MO7e human leukemia cells.
Data set [2] deals with MO7e human leukemia cells. This is another data set of the same source.

Regarding `Cc1ccc(NC(=O)c2ccc(CN3CCN(C)CC3)cc2)cc1Nc1nccc(-c2cccnc2)n1` [Gleevec, imatinib mesylate], the “Kit ligand-stimulated growth of MO7e cells” value in data set [1] is listed as “inhibited”. In addition, the “GM-CSF stimulated growth of MO7e cells” value in data set [2] is on record as “not affected”.
